Several values for one entry are separate records, joined by “and”; a condition that tells them apart may be missing. Identical values can stand only once. Activity calls are given as the source filed them. No rule for the calls is given here.

The first test concerns V. cholerae BH1578 lux reporter, luminescence, 6 h. Put plainly: Cholera quorum inducers, V. cholerae BH1578 lux reporter, luminescence, confirmatory dose response (AID 651809).
Conditions: not given
As to `O=C(Cc1ccc(-c2ccccc2)cc1)NC1CCC1`, the AC40 was 499 nM.
Same read-out and setting: the same measure for `Cc1ccc2cc3c(NC(=O)c4ccco4)nn(C)c3nc2c1`: 10400 nM; for `O=C(Nc1nnc(-c2ccc3c(c2)OCCO3)o1)C1CCCCC1`: 2290 nM.
As to `O=C(Cc1ccc(-c2ccccc2)cc1)NC1CCCC1`, the AC40 was 890 nM and 645 nM.
Regarding `CCNC(=O)Cc1ccc(-c2ccccc2)cc1`, the AC40 was > 35000 nM (inactive).
Take `CCC(C)NC(=O)Cc1ccc(-c2ccccc2)cc1` (stereo not given): the AC40 was 5160 nM.
`O=C(Cc1ccc(-c2ccccn2)cc1)NC1CCCC1`: the AC40 is 10500 nM.
Consider `CCn1nnnc1NCc1ccc(N2CCCC2)cc1`, for which the AC40 is 149 nM and < 135 nM.
Same read-out and setting: the same measure for `Cc1ccccc1CC(=O)NC1CCCC1`: 7560 nM.
In the case of `CCCn1nnnc1NCc1ccc(C(C)C)cc1`, the AC40 was 529 nM.
As for `O=C(Cc1ccc(-c2ccccc2)cc1)NC1CCOCC1`, the AC40 is 5660 nM.
Still for that read-out and setting: the same measure for `CC(C)NC(=O)Cc1ccc(-c2ccccc2)cc1`: 1900 nM; for `CCn1nnnc1NCc1ccc(C(F)(F)F)cc1`: 17800 nM.
Still for that read-out and setting: the same measure for `CCn1nnnc1NCc1ccc(C(C)C)cc1`: 187 nM.
On the same count and under the same terms, the same measure for `CCC(CC)NC(=O)Cc1ccc(-c2ccccc2)cc1`: 4420 nM; for `CC(C)c1ccc(CNc2nnnn2C)cc1`: 4170 nM.
Regarding `Cn1nnnc1NCc1ccc(N2CCCC2)cc1`, the AC40 was 1030 nM.

Tested on in a further test: not listed separately
Described as above. Particulars: V. cholerae BH1578 lux reporter, luminescence, 6 h; at 35 µM (top of the series).
In the case of `CS(=O)(=O)c1ccc(CC(=O)NC2CCCC2)cc1`, the activation is -0.009% (inactive).
Turning to `O=C(Cc1ccccc1Cl)NC1CCCC1`, the activation is 0.002% (inactive).
The same measure, in the same setting: the same measure for `CCc1ccc(C(=O)Nc2nnnn2CC)cc1`: -0.042% (inactive).
With `O=C(NC1CCCC1)Oc1ccc(-c2ccccc2)cc1`, the activation was -0.045% (inactive).
Still for that read-out and setting: the same measure for `FC(F)(F)c1ccc(CNc2nn[nH]n2)cc1`: -0.017% (inactive); for `CNC(=O)Cc1ccc(-c2ccccc2)cc1`: 0.578% (inactive).
As to `COc1cccc(CC(=O)NC2CCCC2)c1`, the activation was -0.014% (inactive).
Consider `CC(C)c1ccc(CNc2nnn(C)n2)cc1`, for which the activation was 0.033% (inactive).
In the case of `O=C(Cc1cccc(F)c1)NC1CCCC1`, the activation is 0.009% (inactive).
On the same count and under the same terms, the same measure for `O=C(Cc1ccccc1-c1ccccc1)NC1CCCC1`: -0.016% (inactive); for `c1cc(N2CCCC2)ccc1CNc1nn[nH]n1`: -0.038% (inactive); for `COc1ccc(CC(=O)NC2CCCC2)cc1`: 2.06% (inactive).
In the case of `CC(C)n1nnnc1NCc1ccc(N2CCCC2)cc1`, the activation is 133% (inactive).
For the compound `O=C(Cc1ccc(-c2cccnc2)cc1)NC1CCCC1`, the activation was 15.8% (inactive).
Turning to `CC(C)(C)OC(=O)N1CCC(NC(=O)Cc2ccc(-c3ccccc3)cc2)CC1`, the activation is -0.022% (inactive).
Consider `CCn1nnnc1NCc1cccn1C`, for which the activation was -0.015% (inactive).
`O=C(Cc1ccccc1C(F)(F)F)NC1CCCC1`: the activation is 0.015% (inactive).
As for `COc1ccccc1CC(=O)NC1CCCC1`, the activation was 0.627% (inactive).
On the same count and under the same terms, the same measure for `CN1CCC(NC(=O)Cc2ccc(-c3ccccc3)cc2)CC1`: 3.34% (inactive); for `O=C(Cc1ccc(-c2ccccc2)cc1)NCc1ccccc1`: 0.004% (inactive); for `O=C(Cc1ccc(-c2ccccc2)cc1)N1CCCC1`: 0.018% (inactive).
On to `CCn1nnc(NCc2ccc(N3CCCC3)cc2)n1`, for which the activation was -0.042% (inactive) and -0.061% (inactive).
As for `CC(C(=O)NC1CCCC1)c1ccc(-c2ccccc2)cc1` (stereo not given), the activation is -0.069% (inactive).
On the same count and under the same terms, the same measure for `O=C(Cc1ccc(Cl)cc1)NC1CCCC1`: 0.645% (inactive); for `O=C(Cc1ccc(-c2ccccc2)cc1)N1CC(F)(F)C1`: 1.11% (inactive); for `Cn1nnc(NCc2ccc(C(F)(F)F)cc2)n1`: 1.48% (inactive).
`O=C(O)Cc1ccc(-c2ccccc2)cc1`: the activation is 0.008% (inactive).
Regarding `O=C(Cc1cccc(-c2ccccc2)c1)NC1CCCC1`, the activation was 18% (inactive).
With `CC(C)c1ccc(CNc2nn[nH]n2)cc1`, the activation was 0.032% (inactive).
The same measure, in the same setting: the same measure for `O=C(Cc1ccc(-c2ccccc2)cc1)NC1CCNCC1`: 0.085% (inactive); for `c1ccc(-c2ccc(CCNC3CCCC3)cc2)cc1`: -0.024% (inactive).
On to `O=C(Cc1ccccc1F)NC1CCCC1`, for which the activation was 0.011% (inactive).
`CCn1nnnc1NC(=O)c1ccc(N2CCCC2)cc1`: the activation was 0.669% (inactive).
Same read-out and setting: the same measure for `CCN(Cc1ccc(N2CCCC2)cc1)c1nnnn1CC`: 1.22% (inactive); for `O=C(CCc1ccc(-c2ccccc2)cc1)NC1CCCC1`: -0.057% (inactive).
As to `O=C(Cc1ccc(-c2ccccc2)cc1)N1CCC(F)(F)CC1`, the activation was -0.007% (inactive).
With `O=C(Cc1ccc(-c2ccccc2)cc1)N1CCCCC1`, the activation is -0.022% (inactive).
On the same count and under the same terms, the same measure for `Cn1nnc(NCc2ccc(N3CCCC3)cc2)n1`: 0.034% (inactive).
Same read-out and setting: the same measure for `O=C(Cc1ccc(OC(F)(F)F)cc1)NC1CCCC1`: 1.25% (inactive).
On the same count and under the same terms, the same measure for `Cc1cccc(CC(=O)NC2CCCC2)c1`: 0.44% (inactive); for `CN(Cc1ccc(N2CCCC2)cc1)c1nnnn1C`: 14.6% (inactive); for `CS(=O)(=O)c1cccc(CC(=O)NC2CCCC2)c1`: 0.049% (inactive).
Regarding `c1ccc(CNc2nn[nH]n2)cc1`, the activation was 0.04% (inactive).
Turning to `O=C(Cc1ccc2ccccc2c1)NC1CCCC1`, the activation is 1.41% (inactive).
On the same count and under the same terms, the same measure for `CCn1nnc(NCc2ccc(C(C)C)cc2)n1`: 0.061% (inactive); for `N#Cc1cccc(CC(=O)NC2CCCC2)c1`: -0.04% (inactive); for `O=C(Cc1ccccc1)NC1CCCC1`: -0.05% (inactive).
Turning to `CN(C)C(=O)Cc1ccc(-c2ccccc2)cc1`, the activation was 0.185% (inactive).
Consider `Cn1nnnc1NCc1ccc(C(F)(F)F)cc1`, for which the activation is 0.204% (inactive).
Same read-out and setting: the same measure for `Cc1ccc(CC(=O)NC2CCCC2)cc1`: 0.967% (inactive); for `O=C(Cc1cccnc1)NC1CCCC1`: -0.043% (inactive); for `O=C(Cc1cccc(Cl)c1)NC1CCCC1`: 0.144% (inactive).
Take `CCn1nnc(NCc2ccccc2)n1`: the activation is 0.35% (inactive).
Same read-out and setting: the same measure for `CCn1nnnc1NCc1ccccc1`: 0.115% (inactive); for `O=C(Cc1cccc(C(F)(F)F)c1)NC1CCCC1`: 0.024% (inactive); for `CCn1nnc(NCc2ccc(C(F)(F)F)cc2)n1`: -0.033% (inactive).
Same read-out and setting: the same measure for `O=C(Cc1ccccc1OC(F)(F)F)NC1CCCC1`: 0.011% (inactive); for `O=C(Cc1ccccc1I)NC1CCCC1`: 0.012% (inactive); for `O=C(Cc1ccc(-c2ccccc2)cc1)NCC1CCCC1`: 0.056% (inactive).
Still for that read-out and setting: the same measure for `Cn1nnnc1NCc1ccccc1`: -0.011% (inactive); for `O=C(Nc1ccc(-c2ccccc2)cc1)NC1CCCC1`: 0.069% (inactive).
As to `O=C(NCc1ccc(-c2ccccc2)cc1)C1CCCC1`, the activation is 0.158% (inactive) and 0.134% (inactive).
The same measure, in the same setting: the same measure for `CN(C(=O)Cc1ccc(-c2ccccc2)cc1)C1CCCC1`: 0.648% (inactive); for `O=C(Cc1ccc(C(F)(F)F)cc1)NC1CCCC1`: 0.008% (inactive).
For the compound `Cn1nnc(NCc2ccccc2)n1`, the activation was -0.02% (inactive).
Still for that read-out and setting: the same measure for `O=C(Cc1ccccn1)NC1CCCC1`: 0.07% (inactive); for `O=C(Cc1ccncc1)NC1CCCC1`: 0.026% (inactive).
Still for that read-out and setting: the same measure for `O=C(Cc1ccc(-c2ccccc2)cc1)Nc1ccccc1`: 0.038% (inactive); for `CN1CCN(C(=O)Cc2ccc(-c3ccccc3)cc2)CC1`: -0.018% (inactive); for `N#Cc1ccc(CC(=O)NC2CCCC2)cc1`: -0.056% (inactive).
On to `O=C(Cc1ccc(-c2ccccc2)cc1)N1CCOCC1`, for which the activation is 0.215% (inactive).
For the compound `O=C(Cc1ccc(-c2ccncc2)cc1)NC1CCCC1`, the activation is 1.61% (inactive).
On the same count and under the same terms, the same measure for `CN(Cc1ccc(N2CCCC2)cc1)c1nnn(C)n1`: -0.005% (inactive).
The same measure, in the same setting: the same measure for `O=C(Cc1ccc(-c2ccccc2)cc1)NC1CCCCC1`: 10.4% (inactive).
For `O=C(Cc1cccc(OC(F)(F)F)c1)NC1CCCC1`, the activation was 1.1% (inactive).
On the same count and under the same terms, the same measure for `CC(C)n1nnc(NCc2ccc(N3CCCC3)cc2)n1`: -0.029% (inactive); for `O=C(Cc1ccc(F)cc1)NC1CCCC1`: 0.012% (inactive); for `O=C(Cc1ccc(-c2ccccc2)cc1)N1CCC1`: 1.77% (inactive).

Source of the values: PubChem BioAssay AID651809 (Broad Institute, 2012).
